Values quoted from earlier work as cited in patent US7807830B2, “Manufacture of pure hydralazine salts” (Navinta LLC, priority 2005, dated 2010).
Where a name gives a salt, the structure may show the parent alone. Read-outs that look alike come from different tables or passages of the source.

For `NNc1nncc2ccccc12` [Hydralazine hydrochloride, 1-hydrazinophthalazine], the onset of action (given intravenously) is given as 10 to 20 min, the duration of action (in vivo) is given as 3 to 4 h and the “maximum hypotensive effect in” value (in vivo) is given as 10 to 80 min. For the same molecule, the onset of action (oral administration) was 10 to 30 min.
